Measured values as given in patent US20020016358A1, “Cosmetic composition” (NOF CORPORATION, priority 2000, published 2002).

Tests used:
[1] = system: human melanoma cell (HM3KO); assay: Suppression of melanin formation in human melanoma cell (HM3KO); type: cell-based; conditions: sample 10 μM in medium, cultivation 6 days, absorbance 410 nm of cell lysate, no addition = 100%
Procedure: (Confirmation of Whitening Effect-1: Suppression of Melanin Formation) Using the obtained compounds of formulae (II) to (V), the effect of suppressing melanin production of human melanoma cell (HM3KO) was examined in vitro. More specifically, HM3KO was cultured to about 5×10^5 by a conventional method, collected by centrifugation to obtain pellets, and inoculated the pellet to a culture dish of 10 cm diameter containing an Eagle's medium supplemented with 10% fetal bovine serum and cultured at 37° C. for 24 hours. Thereafter, each polymethoxyflavone of formulae (II) to (V) was added, or kojic acid or arbutin for comparison was added thereto so that the final addition concentration was 10 μM, followed by cultivation for 6 days. After the cultivation, cells were collected by centrifugation, and 1 ml of 2N sodium hydroxide aqueous solution was added thereto to obtain cell lysate. The absorbance in a wavelength of 410 nm of the cell lysate was measured with a spectrophotometer. Here, the absorbance of the cell lysate to which a sample is not added is defined as 100% of the melanin production ratio, and the melanin production ratios are shown as relative values, measuring the absorbance of each cell lysate.

UV-induced pigmentation = assay: Suppression of UV-induced pigmentation in brown guinea pigs; type: in vivo; conditions: 40 μl twice a day, after UV 0.5 J/cm2; for Pigmentation degree ΔL, After 40 days: no addition −5.2; for Pigmentation degree ΔL, After 20 days: no addition −7.8
Procedure: (Confirmation of Whitening Effect-2: Suppression of UV-induced Pigmentation)
Using brown guinea pigs, the suppression of UV-induced pigmentation was examined in vivo. More specifically, the backs of the brown guinea pigs were shaved and covered with an ultraviolet shielding plate provided with 6 rectangular holes of 2×2 cm, followed by irradiation of UV (0.5 J/cm^2) to induce pigmentation. Thereafter, 40 μl of 70% (W/W) ethanol aqueous solution containing each of polymethoxyflavone (nobiletin) of formula (III) or polymethoxyflavone (tangeretin) of formula (IV) in a concentration shown in Table 2 were applied twice a day. Then, the degrees of pigmentation before and after the application were measured.
In Table 2, the pigmentation degree ΔL was obtained by measuring a L value before UV irradiation, which is defined as 0, with a spectrophotometric calorimeter, and obtaining the difference between the L values before and after UV irradiation. A lower value ΔL corresponds to a higher pigmentation degree.

[2] = sample concentration 0.4% in 70% ethanol
[3] = sample concentration 4% in 70% ethanol, lower ΔL = more pigmentation
[4] = sample concentration 4% in 70% ethanol

| SMILES | Melanin production ratio (% of control) [1] | Pigmentation degree ΔL, After 40 days (UV-induced pigmentation; [2]) | Pigmentation degree ΔL, After 20 days (UV-induced pigmentation; [2]) | Pigmentation degree ΔL, After 20 days (UV-induced pigmentation; [3]) | Pigmentation degree ΔL, After 40 days (UV-induced pigmentation; [4]) |
| --- | --- | --- | --- | --- | --- |
| OC[C@H]1O[C@@H](Oc2ccc(O)cc2)[C@H](O)[C@@H](O)[C@@H]1O [Arbutin, reference compound] | 97 % of control |  |  |  |  |
| O=c1cc(CO)occ1O [Kojic acid, reference compound] | 96 % of control |  |  |  |  |
| COc1ccc(-c2oc3c(OC)c(OC)c(OC)c(OC)c3c(=O)c2OC)cc1OC [formula (II), 3,5,6,7,8,3′,4′-heptamethoxyflavone] | 65 % of control |  |  |  |  |
| COc1ccc(-c2cc(=O)c3c(OC)c(OC)c(OC)c(OC)c3o2)cc1OC [formula (III), 5,6,7,8,3′,4′-hexamethoxyflavone] | 35 % of control | −3.2 | −5.5 | −5.1 | −1.9 |
| COc1ccc(-c2cc(=O)c3c(OC)c(OC)c(OC)c(OC)c3o2)cc1 [formula (IV), 5,6,7,8,4′-pentamethoxyflavone] | 55 % of control | −3.5 | −6.1 | −5.6 | −3.3 |
| COc1ccc(-c2cc(=O)c3c(OC)cc(OC)c(OC)c3o2)cc1OC [formula (V), 5,7,8,3′,4′-pentamethoxyflavone] | 60 % of control |  |  |  |  |
